The text below walks through data of patent US8012956B2, “Tropane compounds” (Exelixis, Inc., priority 2007, dated 2011).

The target of the assay is HSP90 (Homo sapiens, UniProt P07900). As to the kind of experiment: HSP90 inhibition (HSP90 IC50). The class given is biochemical.
`NC(=O)c1ccc(N2[C@@H]3CC[C@H]2C[C@@H](NC(=O)c2ccc(C(N)=O)c(NC4CCC4)c2)C3)nc1` [N4-{8-[5-(aminocarbonyl)pyridin-2-yl]-8-azabicyclo[3.2.1]oct-3-endo-yl}-2-(cyclobutylamino)benzene-1,4-dicarboxamide] showed an IC50 of less than 500 nM.
The compound `CCC(CC)Nc1cc(C(=O)N[C@H]2C[C@H]3CC[C@@H](C2)N3c2ccc(C(C)=O)cn2)c(F)cc1C(N)=O` [N-[8-(5-acetylpyridin-2-yl)-8-azabicyclo[3.2.1]oct-3-endo-yl]-5-[(1-ethylpropyl)amino]-2-fluorobenzene-1,4-dicarboxamide] displayed an IC50 of less than 500 nM.
The value for `Cc1cc(C(=O)N[C@H]2C[C@H]3CC[C@@H](C2)N3c2ccc(C(=O)N[C@@H]3CCN(C(C)C)C3)cn2)c(C)cc1C(N)=O` [2,5-dimethyl-N-{8-[5-({[(3R)-1-(1-methylethyl)pyrrolidin-3-yl]amino}carbonyl)pyridin-2-yl]-8-azabicyclo[3.2.1]oct-3-endo-yl}benzene-1,4-dicarboxamide] was less than 500 nM.
In the case of `CC(=O)c1ccc(N2[C@@H]3CC[C@H]2C[C@@H](NC(=O)c2ccc(C(N)=O)c(Br)c2)C3)nc1` [N4-[8-(5-acetylpyridin-2-yl)-8-azabicyclo[3.2.1]oct-3-endo-yl]-2-bromobenzene-1,4-dicarboxamide], the IC50 was less than 500 nM.
Take `COc1cccc(C(=O)N[C@H]2C[C@H]3CC[C@@H](C2)N3c2ccc(C(=O)NC3CNC3)cn2)c1C` [N-azetidin-3-yl-6-[3-endo-({[2-methyl-3-(methyloxy)phenyl]carbonyl}amino)-8-azabicyclo[3.2.1]oct-8-yl]pyridine-3-carboxamide]: the IC50 is 500 to 999 nM.
`COCCNC(=O)c1ccc(N2[C@@H]3CC[C@H]2C[C@@H](NC(=O)c2cccc(OC)c2C)C3)nc1` [6-[3-endo-({[2-methyl-3-(methyloxy)phenyl]carbonyl}amino)-8-azabicyclo[3.2.1]oct-8-yl]-N-[2-(methyloxy)ethyl]pyridine-3-carboxamide] yielded an IC50 of 2000 to 10000 nM.
Consider `COc1ccc(Nc2cc(C(=O)N[C@H]3C[C@H]4CC[C@@H](C3)N4c3ccc(C(C)=O)cn3)ccc2C(N)=O)cc1OCCN(C)C` [N4-[8-(5-acetylpyridin-2-yl)-8-azabicyclo[3.2.1]oct-3-endo-yl]-2-{[3-{[2-(dimethylamino)ethyl]oxy}-4-(methyloxy)phenyl]amino}benzene-1,4-dicarboxamide], for which the IC50 is less than 500 nM.
`COc1cccc(C(=O)N[C@H]2C[C@H]3CC[C@@H](C2)N3c2ccc(C(=O)NC(C)C)cn2)c1C` [N-(1-methylethyl)-6-[3-endo-({[2-methyl-3-(methyloxy)phenyl]carbonyl}amino)-8-azabicyclo[3.2.1]oct-8-yl]pyridine-3-carboxamide] returned an IC50 of 1000 to 2000 nM.
On to `CC(=O)c1ccc(N2C3CCC2CC(NC(=O)c2ccc(C(N)=O)c(NCCN)c2)C3)nc1` (stereo not drawn) [N4-[8-(5-acetylpyridin-2-yl)-8-azabicyclo[3.2.1]oct-3-endo-yl]-2-[(2-aminoethyl)amino]benzene-1,4-dicarboxamide], for which the IC50 is less than 500 nM.
The compound `COc1ccccc1NC(=O)c1ccc(N2[C@@H]3CC[C@H]2C[C@@H](NC(=O)c2cccc(OC)c2C)C3)nc1` [6-[3-endo-({[2-methyl-3-(methyloxy)phenyl]carbonyl}amino)-8-azabicyclo[3.2.1]oct-8-yl]-N-[2-(methyloxy)phenyl]pyridine-3-carboxamide] displayed an IC50 of 2000 to 10000 nM.
The compound `COc1cccc(C(=O)NC2CC3CCC(C2)N3c2ccc(C(=O)N[C@@H]3CCN(C)C3)cn2)c1C` (stereo partly drawn) [6-[3-endo-({[2-methyl-3-(methyloxy)phenyl]carbonyl}amino)-8-azabicyclo[3.2.1]oct-8-yl]-N-[(3R)-1-methylpyrrolidin-3-yl]pyridine-3-carboxamide] returned an IC50 of less than 500 nM.
The compound `COc1cccc(C(=O)N[C@H]2C[C@H]3CC[C@@H](C2)N3c2ccc(C(=O)NCCc3cccnc3)cn2)c1C` [6-[3-endo-({[2-methyl-3-(methyloxy)phenyl]carbonyl}amino)-8-azabicyclo[3.2.1]oct-8-yl]-N-(2-pyridin-3-ylethyl)pyridine-3-carboxamide] gave an IC50 of 1000 to 2000 nM.
For `CC(=O)c1ccc(N2[C@@H]3CC[C@H]2C[C@@H](NC(=O)c2ccc(C(N)=O)c(NC4CCCCC4)c2)C3)nc1` [N4-[8-(5-acetylpyridin-2-yl)-8-azabicyclo[3.2.1]oct-3-endo-yl]-2-(cyctohexylamino)benzene-1,4-dicarboxamide] the value was less than 500 nM.
In turn, `CCN1CC(NC(=O)c2ccc(N3[C@@H]4CC[C@H]3C[C@@H](NC(=O)c3cc(C)c(C(N)=O)cc3C)C4)nc2)C1` [N-[8-(5-{[(1-ethylazetidin-3-yl)amino]carbonyl}pyridin-2-yl)-8-azabicyclo[3.2.1]oct-3-endo-yl]-2,5-dimethylbenzene-1,4-dicarboxamide] returned an IC50 of less than 500 nM.
On to `CC(=O)c1ccc(N2C3CCC2CC(NC(=O)c2ccc(C(N)=O)c(N[C@H]4CCOC4)c2)C3)nc1` (stereo partly drawn) [N4-[8-(5-acetylpyridin-2-yl)-8-azabicyclo[3.2.1]oct-3-endo-yl]-2-[(3S)-tetrahydrofuran-3-ylamino]benzene-1,4-dicarboxamide], for which the IC50 is less than 500 nM.
In turn, `CCC(CC)Nc1cc(C(=O)N[C@H]2C[C@H]3CC[C@@H](C2)N3c2ccc(C(=O)CCC3CCN(C)CC3)cn2)c(C)cc1C(N)=O` [5-[(1-ethylpropyl)amino]-2-methyl-N-(8-{5-[3-(1-methylpiperidin-4-yl)propanoyl]pyridin-2-yl}-8-azabicyclo[3.2.1]oct-3-endo-yl)benzene-1,4-dicarboxamide] had an IC50 of less than 500 nM.
`CC(=O)c1ccc(N2[C@@H]3CC[C@H]2C[C@@H](NC(=O)c2ccc(C(N)=O)c(NC4CC4)c2)C3)nc1` [N4-[8-(5-acetylpyridin-2-yl)-8-azabicyclo[3.2.1]oct-3-endo-yl]-2-(cyclopropylamino)benzene-1,4-dicarboxamide] had an IC50 of less than 500 nM.
`COc1cccc(C(=O)NC2CC3CCC(C2)N3c2ccc(C(=O)N[C@@H]3CC4CCC3C4)cn2)c1C` (stereo partly drawn) [N-[(1R,2R,4S)-bicyclo[2.2.1]hept-2-yl]-6-[3-endo-({[2-methyl-3-(methyloxy)phenyl]carbonyl}amino)-8-azabicyclo[3.2.1]oct-8-yl]pyridine-3-carboxamide]: the IC50 is 1000 to 2000 nM.
The compound `NC(=O)c1ccc(C(=O)N[C@H]2C[C@H]3CC[C@@H](C2)N3c2ccc(C(=O)NCc3cccnc3)cn2)cc1` [N-[8-(5-{[(pyridin-3-ylmethyl)amino]carbonyl}pyridin-2-yl)-8-azabicyclo[3.2.1]oct-3-endo-yl]benzene-1,4-dicarboxamide] registered an IC50 of less than 500 nM.
As for `O=C(NCc1ccccc1)c1ccc(N2[C@@H]3CC[C@H]2C[C@@H](NC(=O)c2ccc(C(O)CO)cc2)C3)nc1` (stereo partly drawn) [6-[3-endo-({(4-(1,2-dihydroxyethyl)phenyl]carbonyl}amino)-8-azabicyclo[3.2.1]oct-8-yl]-N-(phenylmethyl)pyridine-3-carboxamide], the IC50 was in the range of 1000 to 2000 nM.
`COc1cccc(C(=O)N[C@H]2C[C@H]3CC[C@@H](C2)N3c2ccc(C(=O)NCCCOC(C)C)cn2)c1C` [N-{3-[(1-methylethyl)oxy]propyl}-6-[3-endo-({[2-methyl-3-(methyloxy)phenyl]carbonyl}amino)-8-azabicyclo[3.2.1]oct-8-yl]pyridine-3-carboxamide] gave an IC50 of 1000 to 2000 nM.

As a reminder, the IC50 is the concentration at which inhibition is half-maximal.
